Key:
[1] = target: Mitogen-activated protein kinase 14 (Homo sapiens) (UniProt Q16539); test: Inhibition of human truncated p38 alpha expressed in Escherichia coli cell assessed as substrate phosphorylation using fluorescence-labelled peptides as substrate at 8 uM after 90 mins by microfluidic peptide phosphorylation assay
[2] = target: MAP kinase-activated protein kinase 3 (Homo sapiens) (UniProt Q16644); test: Inhibition of human full length MAPKAPK3 expressed in Escherichia coli cell assessed as substrate phosphorylation using fluorescence-labelled peptides as substrate at 8 uM after 90 mins by microfluidic peptide phosphorylation assay
Sequence of MAP kinase-activated protein kinase 3 (Homo sapiens) (Q16644 whole entry, looked up, the tested form may be a part): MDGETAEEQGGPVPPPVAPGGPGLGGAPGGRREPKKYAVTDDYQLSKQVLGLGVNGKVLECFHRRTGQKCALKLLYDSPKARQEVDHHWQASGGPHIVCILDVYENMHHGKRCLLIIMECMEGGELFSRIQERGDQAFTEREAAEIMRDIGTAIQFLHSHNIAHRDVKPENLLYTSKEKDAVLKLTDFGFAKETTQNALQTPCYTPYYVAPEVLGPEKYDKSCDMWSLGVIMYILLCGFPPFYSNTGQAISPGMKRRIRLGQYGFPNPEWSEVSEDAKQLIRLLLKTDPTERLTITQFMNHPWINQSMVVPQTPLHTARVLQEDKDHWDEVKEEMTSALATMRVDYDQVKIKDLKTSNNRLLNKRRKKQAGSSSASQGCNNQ

[3] = target: Receptor-type tyrosine-protein kinase FLT3 (Homo sapiens) (UniProt P36888); test: Inhibition of human FLT3 catalytic domain expressed in baculovirus assessed as substrate phosphorylation using fluorescence-labelled peptides as substrate at 0.06 uM after 90 mins by microfluidic peptide phosphorylation assay
[4] = target: Vascular endothelial growth factor receptor 2 (Homo sapiens) (UniProt P35968); test: Inhibition of human KDR cytoplasmic domain expressed in baculovirus assessed as substrate phosphorylation using fluorescence-labelled peptides as substrate at 0.06 uM after 90 mins by microfluidic peptide phosphorylation assay
Sequence of Vascular endothelial growth factor receptor 2 (Homo sapiens) (P35968 whole entry, the tested form may be a part): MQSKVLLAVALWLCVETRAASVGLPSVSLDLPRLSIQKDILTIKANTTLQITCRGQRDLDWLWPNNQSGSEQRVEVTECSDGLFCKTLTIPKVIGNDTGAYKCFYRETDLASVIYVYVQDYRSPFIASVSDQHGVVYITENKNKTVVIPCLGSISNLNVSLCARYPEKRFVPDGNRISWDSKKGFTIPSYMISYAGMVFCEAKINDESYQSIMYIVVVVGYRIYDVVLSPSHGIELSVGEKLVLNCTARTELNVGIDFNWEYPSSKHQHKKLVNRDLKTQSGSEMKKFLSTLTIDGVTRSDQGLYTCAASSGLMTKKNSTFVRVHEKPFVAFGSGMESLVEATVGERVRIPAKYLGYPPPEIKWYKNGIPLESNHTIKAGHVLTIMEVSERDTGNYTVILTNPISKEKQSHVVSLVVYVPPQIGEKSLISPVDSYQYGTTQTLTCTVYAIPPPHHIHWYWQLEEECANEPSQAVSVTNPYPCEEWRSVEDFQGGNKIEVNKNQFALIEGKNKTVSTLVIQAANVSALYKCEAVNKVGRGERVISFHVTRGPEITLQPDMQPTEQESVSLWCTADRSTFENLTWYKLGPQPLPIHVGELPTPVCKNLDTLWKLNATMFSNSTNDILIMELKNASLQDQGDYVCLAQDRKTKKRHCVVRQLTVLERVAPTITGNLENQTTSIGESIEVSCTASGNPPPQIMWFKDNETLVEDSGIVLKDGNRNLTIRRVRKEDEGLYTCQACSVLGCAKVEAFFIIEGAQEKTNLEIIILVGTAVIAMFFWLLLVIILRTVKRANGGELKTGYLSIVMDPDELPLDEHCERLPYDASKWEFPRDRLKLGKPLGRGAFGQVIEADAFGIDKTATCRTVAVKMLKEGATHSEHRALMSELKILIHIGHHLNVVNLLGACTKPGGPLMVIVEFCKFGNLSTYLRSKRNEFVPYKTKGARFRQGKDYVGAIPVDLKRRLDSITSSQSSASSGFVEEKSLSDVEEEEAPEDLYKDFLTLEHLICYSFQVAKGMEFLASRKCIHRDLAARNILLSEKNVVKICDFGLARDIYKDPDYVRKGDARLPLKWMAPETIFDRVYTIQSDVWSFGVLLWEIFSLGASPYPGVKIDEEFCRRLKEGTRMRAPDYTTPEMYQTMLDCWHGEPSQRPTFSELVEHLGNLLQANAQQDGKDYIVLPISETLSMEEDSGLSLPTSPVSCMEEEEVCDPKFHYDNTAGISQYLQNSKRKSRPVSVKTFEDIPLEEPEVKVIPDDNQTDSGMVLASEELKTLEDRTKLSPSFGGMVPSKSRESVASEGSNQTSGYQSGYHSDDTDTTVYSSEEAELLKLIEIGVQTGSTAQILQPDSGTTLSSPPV

[5] = target: Mitogen-activated protein kinase kinase kinase kinase 4 (Homo sapiens) (UniProt O95819); test: Inhibition of human HGK catalytic domain expressed in baculovirus assessed as substrate phosphorylation using fluorescence-labelled peptides as substrate at 2 uM after 90 mins by microfluidic peptide phosphorylation assay
Sequence of Mitogen-activated protein kinase kinase kinase kinase 4 (Homo sapiens) (O95819 2-1239 limits assumed): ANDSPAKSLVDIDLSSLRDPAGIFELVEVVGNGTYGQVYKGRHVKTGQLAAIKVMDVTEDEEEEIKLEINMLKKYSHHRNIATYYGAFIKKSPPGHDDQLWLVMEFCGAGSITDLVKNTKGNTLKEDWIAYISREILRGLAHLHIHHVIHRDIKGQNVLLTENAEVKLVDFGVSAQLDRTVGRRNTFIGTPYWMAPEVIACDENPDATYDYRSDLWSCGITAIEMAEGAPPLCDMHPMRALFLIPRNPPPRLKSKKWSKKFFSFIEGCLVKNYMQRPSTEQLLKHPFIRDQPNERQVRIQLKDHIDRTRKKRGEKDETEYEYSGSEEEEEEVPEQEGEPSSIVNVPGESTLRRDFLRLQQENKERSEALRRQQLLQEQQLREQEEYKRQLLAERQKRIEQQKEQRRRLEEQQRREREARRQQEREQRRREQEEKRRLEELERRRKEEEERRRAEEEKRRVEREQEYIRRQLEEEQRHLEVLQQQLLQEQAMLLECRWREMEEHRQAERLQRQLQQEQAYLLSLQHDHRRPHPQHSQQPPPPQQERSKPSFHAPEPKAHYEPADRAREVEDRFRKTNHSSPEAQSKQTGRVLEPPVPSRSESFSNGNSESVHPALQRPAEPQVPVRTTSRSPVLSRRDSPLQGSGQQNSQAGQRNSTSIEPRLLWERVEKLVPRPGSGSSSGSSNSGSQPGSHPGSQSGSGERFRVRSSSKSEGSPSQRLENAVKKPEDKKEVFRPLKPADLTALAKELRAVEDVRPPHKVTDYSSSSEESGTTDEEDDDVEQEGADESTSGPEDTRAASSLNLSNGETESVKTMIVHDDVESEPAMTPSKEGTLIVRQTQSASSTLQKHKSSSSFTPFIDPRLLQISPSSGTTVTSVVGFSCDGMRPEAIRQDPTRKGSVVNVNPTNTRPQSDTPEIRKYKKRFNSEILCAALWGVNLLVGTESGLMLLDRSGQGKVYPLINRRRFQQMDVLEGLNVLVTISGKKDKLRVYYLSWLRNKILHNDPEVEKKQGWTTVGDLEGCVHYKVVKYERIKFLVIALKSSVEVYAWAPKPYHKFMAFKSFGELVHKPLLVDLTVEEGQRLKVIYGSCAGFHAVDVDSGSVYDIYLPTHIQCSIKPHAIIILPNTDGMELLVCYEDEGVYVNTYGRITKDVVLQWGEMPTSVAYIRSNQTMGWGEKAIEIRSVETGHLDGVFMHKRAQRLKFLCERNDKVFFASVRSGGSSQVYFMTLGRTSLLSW

[6] = target: T1, Testis-specific serine/threonine-protein kinase 2 (Homo sapiens) (UniProt Q96PF2); test: Inhibition of human full length TSSK2 expressed in baculovirus assessed as substrate phosphorylation using fluorescence-labelled peptides as substrate at 9 uM after 90 mins by microfluidic peptide phosphorylation assay
T1 sequence (whole entry): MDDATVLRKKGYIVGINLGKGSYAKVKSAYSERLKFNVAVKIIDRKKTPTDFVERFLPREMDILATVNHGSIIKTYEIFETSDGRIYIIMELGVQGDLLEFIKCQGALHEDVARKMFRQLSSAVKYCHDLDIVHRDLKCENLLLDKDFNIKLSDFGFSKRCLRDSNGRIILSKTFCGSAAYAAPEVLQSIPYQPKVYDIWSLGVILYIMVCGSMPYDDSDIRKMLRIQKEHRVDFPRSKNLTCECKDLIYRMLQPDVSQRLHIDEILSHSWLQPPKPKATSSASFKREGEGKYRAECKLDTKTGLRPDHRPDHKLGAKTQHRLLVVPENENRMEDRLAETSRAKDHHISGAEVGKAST

[7] = test system: Fibroblast growth factor receptor 2 (Homo sapiens), P21802 [N549H]; test: Inhibition of human FGFR2 N549H mutant catalytic domain expressed in baculovirus assessed as substrate phosphorylation using fluorescence-labelled peptides as substrate at 9 uM after 90 mins by microfluidic peptide phosphorylation assay
Sequence of Fibroblast growth factor receptor 2 (Homo sapiens), P21802 [N549H] (P21802 whole entry N549H, the tested form may be a part): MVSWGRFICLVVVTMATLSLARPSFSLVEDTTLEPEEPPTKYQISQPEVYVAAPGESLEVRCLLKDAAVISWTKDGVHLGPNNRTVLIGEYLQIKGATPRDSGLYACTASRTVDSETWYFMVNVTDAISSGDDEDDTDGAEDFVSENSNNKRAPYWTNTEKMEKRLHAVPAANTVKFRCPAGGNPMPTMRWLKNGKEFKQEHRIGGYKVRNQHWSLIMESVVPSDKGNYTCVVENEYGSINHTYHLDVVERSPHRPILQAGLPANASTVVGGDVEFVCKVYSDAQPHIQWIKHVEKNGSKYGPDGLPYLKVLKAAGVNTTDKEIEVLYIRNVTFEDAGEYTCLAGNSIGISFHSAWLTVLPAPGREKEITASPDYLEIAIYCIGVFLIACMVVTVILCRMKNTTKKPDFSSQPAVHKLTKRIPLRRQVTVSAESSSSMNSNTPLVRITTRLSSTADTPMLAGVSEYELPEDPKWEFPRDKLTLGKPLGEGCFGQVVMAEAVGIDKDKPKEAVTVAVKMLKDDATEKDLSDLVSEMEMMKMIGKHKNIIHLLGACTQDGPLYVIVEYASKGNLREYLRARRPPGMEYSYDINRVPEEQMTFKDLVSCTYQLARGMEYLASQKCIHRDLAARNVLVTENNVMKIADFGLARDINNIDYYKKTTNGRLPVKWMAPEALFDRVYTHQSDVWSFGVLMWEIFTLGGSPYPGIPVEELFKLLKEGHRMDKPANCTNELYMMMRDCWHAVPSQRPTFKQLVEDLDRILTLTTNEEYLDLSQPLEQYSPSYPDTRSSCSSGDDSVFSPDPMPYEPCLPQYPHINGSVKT

[8] = test system: Tyrosine-protein kinase ABL1 (Homo sapiens), P00519 [H396P]; test: Inhibition of human truncated ABL H396P mutant expressed in baculovirus assessed as substrate phosphorylation using fluorescence-labelled peptides as substrate at 9 uM after 90 mins by microfluidic peptide phosphorylation assay
[9] = target: Cyclin-dependent kinase 2 (Homo sapiens) (UniProt P24941); test: Inhibition of human full length CDK2 expressed in baculovirus assessed as substrate phosphorylation using fluorescence-labelled peptides as substrate at 0.1 uM after 90 mins by microfluidic peptide phosphorylation assay
[10] = target: Cyclin-dependent kinase 2 (Homo sapiens) (UniProt P24941); test: Inhibition of human full length CDK2 expressed in baculovirus assessed as substrate phosphorylation using fluorescence-labelled peptides as substrate at 1000 uM after 90 mins by microfluidic peptide phosphorylation assay
[11] = target: T2, cGMP-dependent protein kinase 1 (Homo sapiens) (UniProt Q13976); test: Inhibition of human full length PKG-1beta expressed in baculovirus assessed as substrate phosphorylation using fluorescence-labelled peptides as substrate at 1000 uM after 90 mins by microfluidic peptide phosphorylation assay
T2 sequence (whole entry): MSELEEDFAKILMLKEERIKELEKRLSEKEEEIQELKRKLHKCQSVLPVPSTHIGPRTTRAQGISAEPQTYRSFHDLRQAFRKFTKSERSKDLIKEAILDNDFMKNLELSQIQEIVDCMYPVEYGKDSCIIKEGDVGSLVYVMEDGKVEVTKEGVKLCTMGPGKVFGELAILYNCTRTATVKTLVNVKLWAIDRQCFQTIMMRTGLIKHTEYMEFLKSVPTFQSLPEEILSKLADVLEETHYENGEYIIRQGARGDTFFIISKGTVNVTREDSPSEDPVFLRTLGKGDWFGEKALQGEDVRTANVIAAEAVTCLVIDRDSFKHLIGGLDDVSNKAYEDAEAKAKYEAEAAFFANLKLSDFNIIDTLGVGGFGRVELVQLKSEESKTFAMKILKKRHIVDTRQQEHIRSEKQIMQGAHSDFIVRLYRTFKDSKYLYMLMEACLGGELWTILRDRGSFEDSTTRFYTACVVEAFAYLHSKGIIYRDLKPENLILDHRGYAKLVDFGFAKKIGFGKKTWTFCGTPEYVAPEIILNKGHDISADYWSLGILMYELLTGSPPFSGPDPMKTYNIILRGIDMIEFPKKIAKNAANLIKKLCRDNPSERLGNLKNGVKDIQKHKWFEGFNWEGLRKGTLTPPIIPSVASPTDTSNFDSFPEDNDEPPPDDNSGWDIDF

[12] = test system: Tyrosine-protein kinase ABL1 (Homo sapiens), P00519 [T315I]; test: Inhibition of human truncated ABL T315I mutant expressed in baculovirus assessed as substrate phosphorylation using fluorescence-labelled peptides as substrate at 70 uM after 90 mins by microfluidic peptide phosphorylation assay

Sequence of Mitogen-activated protein kinase 14 (Homo sapiens) (Q16539 whole entry, the tested form may be a part): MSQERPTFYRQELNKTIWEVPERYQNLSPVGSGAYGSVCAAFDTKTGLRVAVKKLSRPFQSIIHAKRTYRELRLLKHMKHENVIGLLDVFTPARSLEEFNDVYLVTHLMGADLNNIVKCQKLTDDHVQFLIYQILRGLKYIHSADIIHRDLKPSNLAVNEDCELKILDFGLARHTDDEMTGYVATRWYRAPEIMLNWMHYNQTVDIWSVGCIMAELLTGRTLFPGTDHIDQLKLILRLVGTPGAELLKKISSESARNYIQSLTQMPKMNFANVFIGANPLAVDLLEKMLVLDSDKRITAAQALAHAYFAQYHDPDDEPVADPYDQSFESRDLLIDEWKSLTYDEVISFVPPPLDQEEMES

NCC1CCN(c2ncnc3[nH]ccc23)CC1
inhibition [1]: 7%
inhibition [2]: 81.5%

NC1(Cc2ccc(Cl)cc2)CCN(c2ncnc3[nH]ccc23)CC1
inhibition [3]: 0%
inhibition [4]: 0%

NC1CCN(c2ncnc3[nH]ccc23)CC1
inhibition [5]: 0%

NCC1CN(c2ncnc3[nH]c4cnccc4c23)CCO1 (configuration not stated)
inhibition [6]: 0%
inhibition [7]: 47.5%
inhibition [8]: 16%

C[C@H](CN(C)C)Oc1nc(Nc2cc3cccc(Cl)c3cn2)cnc1C#N
inhibition [9]: 1.5%

c1cnc2[nH]ccc2c1
inhibition [10]: 45.5%
inhibition [11]: 87%

CNCc1ccc(-c2ncnc3[nH]cnc23)cc1
inhibition [12]: 22%

From ChEMBL document CHEMBL3132769, “Fragment growing to retain or alter the selectivity of anchored kinase hinge-binding fragments” (Medchemcomm, 2014)
